Laboratory results as given in PubChem BioAssay AID1259408 (Genetic Toxicology Data Bank (GENE-TOX), 2018).
The source made the active and inactive calls. The rule behind the calls is not given here.

Test system: GENE-TOX genotoxicity assays, various organisms and cells
Assay: GENE-TOX mutagenicity studies
[1] = Species/Cell Type: Salmonella typhimurium, Assay Type: Forward and reverse gene mutation, host-mediated assay, Assay Code: HMA-, Evaluation Type: Evaluation A (Pre-1980)
[2] = Species/Cell Type: Salmonella typhimurium (one or more of the five standard strains: TA98, TA100, TA1535, TA1537, and TA1538), Assay Type: Histidine reverse gene mutation, Ames assay, Assay Code: SAL+*, Activation: With metabolic activation, Evaluation Type: Evaluation A (Pre-1980)
[3] = Species/Cell Type: Mammalian polychromatic erythrocytes, Assay Type: Micronucleus test, chromosome aberrations, Assay Code: MNT-, Evaluation Type: Evaluation B (Post-1980)
[4] = Species/Cell Type: Drosophila melanogaster, Assay Type: Sex-linked recessive lethal gene mutation, Assay Code: SRLT, Evaluation Type: Evaluation A (Pre-1980)
[5] = Species/Cell Type: Salmonella typhimurium (one or more of the five standard strains: TA98, TA100, TA1535, TA1537, and TA1538), Assay Type: Histidine reverse gene mutation, Ames assay, Assay Code: SAL+, Evaluation Type: Evaluation A (Pre-1980)

C=CN(CC)N=O
mutagenic call (Species/Cell Type: Arabidopsis species, Assay Type: Gene mutation, Assay Code: ARM+D, Dose Response: With dose response, Evaluation Type: Evaluation A (Pre-1980)): active; positive

[Mg+2]
mutagenic call (Species/Cell Type: Bacillus subtilis (H17 vs M45), Assay Type: Rec-assay, spot test, DNA effects (bacterial DNA repair), Assay Code: REW-, Evaluation Type: Evaluation A (Pre-1980)): inactive; negative

CCOP(=S)(NC(C)CC)Oc1cc(C)ccc1[N+](=O)[O-] (stereo not given)
mutagenic call [1]: inactive; negative

Cc1cc2c(c3ccc4ccccc4c13)CCC2=O
mutagenic call (Species/Cell Type: Human lymphocytes, Assay Type: Sister-chromatid exchange (SCE) in vitro, Assay Code: SCL+D*, Activation: With metabolic activation, Dose Response: With dose response, Evaluation Type: Evaluation B (Post-1980)): active; positive
mutagenic call (Species/Cell Type: Human, Assay Type: Sister-chromatid exchange (SCE) in vitro, Assay Code: SC1+D*, Activation: With metabolic activation, Dose Response: With dose response, Evaluation Type: Evaluation B (Post-1980)): active; positive
mutagenic call (Species/Cell Type: Nonhuman, Assay Type: Sister-chromatid exchange (SCE) in vivo, Assay Code: SC3+, Evaluation Type: Evaluation B (Post-1980)): active; positive
mutagenic call [2]: active; positive

CCN(CC)c1ccc(C(=C2C=CC(=[N+](CC)CC)C=C2)c2ccc(S(=O)(=O)O)cc2S(=O)(=O)[O-])cc1
mutagenic call (Species/Cell Type: Mammalian polychromatic erythrocytes, Assay Type: Micronucleus test, chromosome aberrations, Assay Code: MNT+, Evaluation Type: Evaluation B (Post-1980)): active; positive

CCCCCc1cc(O)cc(O)c1
mutagenic call (Species/Cell Type: Human lymphocytes, Assay Type: Micronucleus test in vitro, chromosome aberrations, Assay Code: MN7+, Evaluation Type: Evaluation A (Pre-1980)): active; positive

Cc1ccc(N2CCN(C)CC2)c2c(=O)c3ccc(Cl)cc3sc12
mutagenic call (Species/Cell Type: Salmonella typhimurium (one or more of the five standard strains: TA98, TA100, TA1535, TA1537, and TA1538), Assay Type: Histidine reverse gene mutation, Ames assay, Assay Code: SALT, Evaluation Type: Evaluation A (Pre-1980)): no conclusion

CCSCC[C@H](N)C(=O)O
mutagenic call (Species/Cell Type: Escherichia coli polA (W3110 vs P3478), Assay Type: Rec-assay, DNA effects (bacterial DNA repair), Assay Code: RE2T, Evaluation Type: Evaluation A (Pre-1980)): no conclusion
mutagenic call (Species/Cell Type: Escherichia coli polA (W3119 vs P3478), Assay Type: Rec-assay, DNA effects (bacterial DNA repair), Assay Code: RE1T, Evaluation Type: Evaluation A (Pre-1980)): no conclusion
mutagenic call (Species/Cell Type: Human diploid fibroblasts, Assay Type: Unscheduled DNA synthesis (UDS) in vitro, DNA effects, Assay Code: UDH-, Evaluation Type: Evaluation A (Pre-1980)): inactive; negative
mutagenic call (Species/Cell Type: Human lymphocytes, Assay Type: Sister-chromatid exchange (SCE) in vitro, Assay Code: SCL+, Evaluation Type: Evaluation B (Post-1980)): active; positive
mutagenic call (Species/Cell Type: Human, Assay Type: Sister-chromatid exchange (SCE) in vitro, Assay Code: SC1+, Evaluation Type: Evaluation B (Post-1980)): active; positive
mutagenic call (Species/Cell Type: Mammalian polychromatic erythrocytes, Assay Type: Micronucleus test, chromosome aberrations, Assay Code: MNT+, Evaluation Type: Evaluation A (Pre-1980)): active; positive
mutagenic call (Species/Cell Type: Mouse, Sex: Male, Assay Type: Sperm morphology, Assay Code: SPI+, Evaluation Type: Evaluation A (Pre-1980)): active; positive
mutagenic call (Species/Cell Type: Saccharomyces cerevisiae, Assay Type: Mitotic recombination or gene conversion, Assay Code: YEH-, Evaluation Type: Evaluation A (Pre-1980)): inactive; negative
mutagenic call (Species/Cell Type: Salmonella typhimurium (one or more of the five standard strains: TA98, TA100, TA1535, TA1537, and TA1538), Assay Type: Histidine reverse gene mutation, Ames assay, Assay Code: SAL-, Evaluation Type: Evaluation A (Pre-1980)): inactive; negative
mutagenic call [1]: inactive; negative
mutagenic call (Species/Cell Type: Syrian hamster embryo (SHE) cells, Assay Type: Cell transformation, clonal assay, Assay Code: CTC+, Evaluation Type: Evaluation A (Pre-1980)): active; positive

C=C(Cl)CSC(=S)N(CC)CC
call (Species/Cell Type: Nonhuman, Assay Type: In vivo carcinogenicity studies, Assay Code: CCG+, Evaluation Type: Evaluation A (Pre-1980)): active; positive
mutagenic call [2]: active; positive

OCC1COCO1 (stereo not given)
mutagenic call [3]: inactive; negative

c1ccc2c(c1)ccc1nc3c(ccc4ccccc43)nc12
mutagenic call [4]: no conclusion

C1=CC2OC2c2cc3ccc4ccccc4c3cc21 (stereo not given)
mutagenic call [4]: no conclusion
mutagenic call (Species/Cell Type: Mouse prostate cells, Assay Type: Cell transformation, Assay Code: CTM+, Evaluation Type: Evaluation A (Pre-1980)): active; positive

CC1(C)O[C@@H]2C[C@H]3[C@@H]4C[C@H](F)C5=CC(=O)C=C[C@]5(C)[C@@]4(F)[C@@H](O)C[C@]3(C)[C@]2(C(=O)CO)O1
mutagenic call (Species/Cell Type: Syrian hamster embryo (SA7/SHE) cells, Assay Type: Cell transformation, viral enhanced, Assay Code: CT7+, Evaluation Type: Evaluation A (Pre-1980)): active; positive

OC[C@@H](O)[C@@H](O[C@H]1O[C@H](CO)[C@@H](O)[C@H](O)[C@H]1O)[C@H](O)[C@@H](O)CO
mutagenic call [3]: inactive; negative

O=C(NO)c1ccccc1
mutagenic call [5]: active; positive

CC(C)NC(=O)/C=C/c1ccc([N+](=O)[O-])o1
mutagenic call (Species/Cell Type: Chinese hamster lung (V79) cells, Assay Type: Forward gene mutation at the HPRT or ouabain locus, Assay Code: V79+, Evaluation Type: Evaluation A (Pre-1980)): active; positive
mutagenic call (Species/Cell Type: Neurospora crassa, Assay Type: Forward gene mutation, Assay Code: NEF+, Evaluation Type: Evaluation A (Pre-1980)): active; positive
mutagenic call (Species/Cell Type: Neurospora crassa, Assay Type: Reverse gene mutation, Assay Code: NER+, Evaluation Type: Evaluation A (Pre-1980)): active; positive
mutagenic call (Species/Cell Type: Saccharomyces cerevisiae, Assay Type: Mitotic recombination or gene conversion, Assay Code: YEC+, Evaluation Type: Evaluation A (Pre-1980)): active; positive
mutagenic call [5]: active; positive
